Reference: US3956274A, “New compound 6'-deoxy-'-substituted or unsubstituted amino-lividomycins and the production thereof” (Zaidan Hojin Biseibutsu Kagaku Kenkyu Kai, priority 1973, dated 1976)
Converted amounts (≈) assume the structure as drawn.

How the values were obtained:
Proteus rettgeri GN 311 = experiment: MIC, standard serial dilution method; assay type: cell-based; conditions: 37°C, 18 hours
Experimental: (§1) The minimum inhibitory concentrations (mcg/ml) of 6'-amino-6'-deoxylividomycin B, 6'-deoxy-6'-methylaminolividomycin B and 6'-deoxy-6'-(2-hydroxyethylamino) lividomycin B against various microorganisms were determined according to a standard serial dilution method using nutrient agar incubation medium at 37°C, the estimation being effected after 18 hours incubation except for Mycobacterium smegmalis ATCC 607, in which the estimation being effected after 48 hours incubation. The minimum inhibitory concentrations (mcg/ml) of neomycin and lividomycin B were also determined in the same manner they also for comparison.

[1] = test system: Pseudomonas aeruginosa No.12; experiment: MIC, standard serial dilution method; assay type: cell-based; conditions: P. aeruginosa No.12, nutrient agar, 37°C, 18 hours
Experimental: as §1

[2] = test system: Pseudomonas aeruginosa TI-13-1; experiment: MIC, standard serial dilution method; assay type: cell-based; conditions: P. aeruginosa TI-13-1, nutrient agar, 37°C, 18 hours
Experimental: as §1

[3] = test system: Klebsiella pneumoniae PCI 602; experiment: MIC, standard serial dilution method; assay type: cell-based; conditions: K. pneumoniae PCI 602, nutrient agar, 37°C, 18 hours
Experimental: as §1

[4] = test system: Pseudomonas aeruginosa A 3; experiment: MIC, standard serial dilution method; assay type: cell-based
Experimental: as §1

Escherichia coli K-12 = experiment: MIC, standard serial dilution method; assay type: cell-based; conditions: E. coli K-12, nutrient agar, 37°C, 18 hours
Experimental: as §1

[5] = test system: Bacillus subtilis NRRL B-558; experiment: MIC, standard serial dilution method; assay type: cell-based; conditions: B. subtilis NRRL B-558, nutrient agar, 37°C, 18 hours
Experimental: as §1

[6] = test system: Klebsiella pneumoniae type 22 No. 3038; experiment: MIC, standard serial dilution method; assay type: cell-based
Experimental: as §1

[7] = test system: Pseudomonas aeruginosa 99; experiment: MIC, standard serial dilution method; assay type: cell-based; conditions: P. aeruginosa 99, nutrient agar, 37°C, 18 hours
Experimental: as §1

[8] = test system: Escherichia coli K-12 W 677; experiment: MIC, standard serial dilution method; assay type: cell-based
Experimental: as §1

[9] = test system: Escherichia coli K-12 J 5 R 11-2; experiment: MIC, standard serial dilution method; assay type: cell-based; conditions: E. coli K-12 J 5 R 11-2, nutrient agar, 37°C, 18 hours
Experimental: as §1

[10] = test system: Escherichia coli K-12 ML 1630; experiment: MIC, standard serial dilution method; assay type: cell-based; conditions: E. coli K-12 ML 1630, nutrient agar, 37°C, 18 hours
Experimental: as §1

[11] = test system: Escherichia coli K-12 LA 290 R 64; experiment: MIC, standard serial dilution method; assay type: cell-based; conditions: E. coli K-12 LA 290 R 64, nutrient agar, 37°C, 18 hours
Experimental: as §1

[12] = test system: Escherichia coli K-12 R-5; experiment: MIC, standard serial dilution method; assay type: cell-based; conditions: E. coli K-12 R-5, nutrient agar, 37°C, 18 hours
Experimental: as §1

[13] = test system: Staphylococcus aureus FDA 209 P; experiment: MIC, standard serial dilution method; assay type: cell-based; conditions: S. aureus FDA 209 P, nutrient agar, 37°C, 18 hours
Experimental: as §1

[14] = test system: Escherichia coli K-12 ML 1410; experiment: MIC, standard serial dilution method; assay type: cell-based
Experimental: as §1

Sarcina lutea PCI 1001 = experiment: MIC, standard serial dilution method; assay type: cell-based; conditions: 37°C, 18 hours
Experimental: as §1

[15] = test system: Mycobacterium smegmatis ATCC 607; experiment: MIC, standard serial dilution method; assay type: cell-based; conditions: 37°C, 48 hours
Experimental: as §1

Proteus rettgeri GN 466 = experiment: MIC, standard serial dilution method; assay type: cell-based
Experimental: as §1

Salmonella typhosa T-63 = experiment: MIC, standard serial dilution method; assay type: cell-based
Experimental: as §1

[16] = test system: Escherichia coli K-12 ML 1410 R 81; experiment: MIC, standard serial dilution method; assay type: cell-based
Experimental: as §1

Escherichia coli NIHJ = experiment: MIC, standard serial dilution method; assay type: cell-based
Experimental: as §1

[17] = test system: Escherichia coli K-12 LA 290 R 56; experiment: MIC, standard serial dilution method; assay type: cell-based
Experimental: as §1

[18] = test system: kanamycin-resistant strains; conditions: in words; cited from earlier work
[19] = test system: Escherichia coli K-12 JR 66/W 677; experiment: MIC, standard serial dilution method; assay type: cell-based
Experimental: as §1
(§2) In the above table, the mark * denotes the strain is a drug-resistant
(§3) strain of patient-origin.

[20] = test system: Pseudomonas aeruginosa GN 315; experiment: MIC, standard serial dilution method; assay type: cell-based; conditions: P. aeruginosa GN 315, drug-resistant strain of patient-origin, nutrient agar, 37°C, 18 hours
Experimental: as §1, §2, §3

[21] = test system: Escherichia coli K-12 ML 1629; experiment: MIC, standard serial dilution method; assay type: cell-based; conditions: E. coli K-12 ML 1629, drug-resistant strain of patient-origin, nutrient agar, 37°C, 18 hours
Experimental: as §1, §2, §3

[22] = test system: Escherichia coli K-12 LA 290 R 55; experiment: MIC, standard serial dilution method; assay type: cell-based
Experimental: as §1, §2, §3

[23] = test system: strains producing the phosphotransferase; conditions: in words; cited from earlier work
[24] = Pseudomonas aeruginosa, read-out: Minimal inhibitory concentration
[25] = Escherichia coli, 18 h, read-out: Minimal inhibitory concentration

Structure (SMILES): NC[C@@H]1O[C@H](O[C@H]2[C@@H](O)[C@H](O[C@@H]3[C@@H](O)[C@H](N)C[C@H](N)[C@H]3O[C@H]3O[C@H](CO)[C@@H](O)C[C@H]3N)O[C@@H]2CO)[C@H](N)[C@@H](O)[C@@H]1O [LVB, lividomycin B, reference compound]
- MIC (Proteus rettgeri GN 311; Providencia rettgeri, GN311, nutrient agar, read-out: Minimal inhibitory concentration): 1.56 µg/mL (≈ 2.6 µM)
- MIC [1, 24]: 25 µg/mL (≈ 41.7 µM)
- MIC ([2]; Pseudomonas aeruginosa, TI131, read-out: Minimal inhibitory concentration): > 100 µg/mL
- MIC ([3]; Klebsiella pneumoniae, PCI602, read-out: Minimal inhibitory concentration): 1.56 µg/mL (≈ 2.6 µM)
- MIC ([4]; Pseudomonas aeruginosa, A3, 18 h, read-out: Minimal inhibitory concentration): 6.25 µg/mL (≈ 10.4 µM)
- MIC (Escherichia coli K-12; Escherichia coli, K12, read-out: Minimal inhibitory concentration): 1.56 µg/mL (≈ 2.6 µM)
- MIC ([5]; Bacillus subtilis, NRRLB558, read-out: Minimal inhibitory concentration): < 0.2 µg/mL
- MIC ([6]; Klebsiella pneumoniae, TYPE22NO.3038, 18 h, read-out: Minimal inhibitory concentration): 6.25 µg/mL (≈ 10.4 µM)
- MIC [7, 24]: 100 µg/mL (≈ 167 µM)
- MIC ([8]; Escherichia coli, K12W677, 18 h, read-out: Minimal inhibitory concentration): 3.12 µg/mL (≈ 5.2 µM)
- MIC ([9]; Escherichia coli, K12J5R112, read-out: Minimal inhibitory concentration): > 100 µg/mL
- MIC ([10]; Escherichia coli, K12ML1630, read-out: Minimal inhibitory concentration): > 100 µg/mL
- MIC ([11]; Escherichia coli, read-out: Minimal inhibitory concentration): 3.12 µg/mL (≈ 5.2 µM)
- MIC ([12]; Escherichia coli, K12R5, read-out: Minimal inhibitory concentration): 1.56 µg/mL (≈ 2.6 µM)
- MIC ([13]; Staphylococcus aureus, FDA209, read-out: Minimal inhibitory concentration): 1.56 µg/mL (≈ 2.6 µM)
- MIC ([14]; Escherichia coli, K12ML1410, 18 h, read-out: Minimal inhibitory concentration): 6.25 µg/mL (≈ 10.4 µM)
- MIC (Sarcina lutea PCI 1001; Micrococcus luteus, PCI1001, nutrient agar, read-out: Minimal inhibitory concentration): 1.56 µg/mL (≈ 2.6 µM)
- MIC ([15]; Mycolicibacterium smegmatis, ATCC607, nutrient agar, read-out: Minimal inhibitory concentration): 0.39 µg/mL (≈ 0.65 µM)
- MIC (Proteus rettgeri GN 466; Providencia rettgeri, GN466, 18 h, read-out: Minimal inhibitory concentration): 3.12 µg/mL (≈ 5.2 µM)
- MIC (Salmonella typhosa T-63; Salmonella enterica, TYPHOSA, 18 h, read-out: Minimal inhibitory concentration): 0.78 µg/mL (≈ 1.3 µM)
- MIC [16, 25]: > 100 µg/mL
- MIC (Escherichia coli NIHJ; [25]): 3.12 µg/mL (≈ 5.2 µM)
- MIC [17, 25]: 3.12 µg/mL (≈ 5.2 µM)
- activity against kanamycin-resistant strains [18]: active against the kanamycin-resistant bacteria
- MIC [19, 25]: 6.25 µg/mL (≈ 10.4 µM)
- MIC ([20]; Pseudomonas aeruginosa, GN315, read-out: Minimal inhibitory concentration): 50 µg/mL (≈ 83.4 µM)
- MIC ([21]; Escherichia coli, K12ML1629, read-out: Minimal inhibitory concentration): > 100 µg/mL
- MIC [22, 25]: 3.12 µg/mL (≈ 5.2 µM)

Structure (SMILES): NC[C@@H]1O[C@H](O[C@H]2[C@@H](O)[C@H](O[C@@H]3[C@@H](O)[C@H](N)C[C@H](N)[C@H]3O[C@H]3O[C@H](CN)[C@@H](O)[C@H](O)[C@H]3N)O[C@@H]2CO)[C@H](N)[C@@H](O)[C@@H]1O [NM, neomycin, reference compound]
- Minimal inhibitory concentration (Proteus rettgeri GN 311; nutrient agar): 50 µg/mL (≈ 81.3 µM)
- Minimal inhibitory concentration [1]: 3.12 µg/mL (≈ 5.08 µM)
- Minimal inhibitory concentration [2]: > 100 µg/mL
- Minimal inhibitory concentration [3]: 0.78 µg/mL (≈ 1.27 µM)
- Minimal inhibitory concentration ([4]; P. aeruginosa A 3, nutrient agar, 37°C, 18 hours): 25 µg/mL (≈ 40.7 µM)
- Minimal inhibitory concentration (Escherichia coli K-12): 1.56 µg/mL (≈ 2.54 µM)
- Minimal inhibitory concentration [5]: < 0.20 µg/mL
- Minimal inhibitory concentration ([6]; K. pneumoniae type 22 No. 3038, nutrient agar, 37°C, 18 hours): > 100 µg/mL
- Minimal inhibitory concentration [7]: 50 µg/mL (≈ 81.3 µM)
- Minimal inhibitory concentration ([8]; E. coli K-12 W 677, nutrient agar, 37°C, 18 hours): 0.78 µg/mL (≈ 1.27 µM)
- Minimal inhibitory concentration [9]: 50 µg/mL (≈ 81.3 µM)
- Minimal inhibitory concentration [10]: > 100 µg/mL
- Minimal inhibitory concentration [11]: 0.39 µg/mL (≈ 0.635 µM)
- Minimal inhibitory concentration [12]: 0.78 µg/mL (≈ 1.27 µM)
- Minimal inhibitory concentration [13]: 0.39 µg/mL (≈ 0.635 µM)
- Minimal inhibitory concentration ([14]; E. coli K-12 ML 1410, nutrient agar, 37°C, 18 hours): 6.25 µg/mL (≈ 10.2 µM)
- Minimal inhibitory concentration (Sarcina lutea PCI 1001; nutrient agar): 0.78 µg/mL (≈ 1.27 µM)
- Minimal inhibitory concentration ([15]; nutrient agar): < 0.20 µg/mL
- Minimal inhibitory concentration (Proteus rettgeri GN 466; Proteus rettgeri GN 466, nutrient agar, 37°C, 18 hours): 3.12 µg/mL (≈ 5.08 µM)
- Minimal inhibitory concentration (Salmonella typhosa T-63; Salmonella typhosa T-63, nutrient agar, 37°C, 18 hours): 0.78 µg/mL (≈ 1.27 µM)
- Minimal inhibitory concentration ([16]; E. coli K-12 ML 1410 R 81, nutrient agar, 37°C, 18 hours): > 100 µg/mL
- Minimal inhibitory concentration (Escherichia coli NIHJ; E. coli NIHJ, nutrient agar, 37°C, 18 hours): 1.56 µg/mL (≈ 2.54 µM)
- Minimal inhibitory concentration ([17]; E. coli K-12 LA 290 R 56, nutrient agar, 37°C, 18 hours): 0.78 µg/mL (≈ 1.27 µM)
- Minimal inhibitory concentration ([19]; E. coli K-12 JR 66/W 677, drug-resistant strain of patient-origin, nutrient agar, 37°C, 18 hours): > 100 µg/mL
- Minimal inhibitory concentration [20]: 100 µg/mL (≈ 163 µM)
- Minimal inhibitory concentration [21]: 100 µg/mL (≈ 163 µM)
- Minimal inhibitory concentration ([22]; E. coli K-12 LA 290 R 55, drug-resistant strain of patient-origin, nutrient agar, 37°C, 18 hours): 0.78 µg/mL (≈ 1.27 µM)

Structure (SMILES): NC[C@@H]1CC[C@@H](N)[C@@H](O[C@H]2[C@H](O[C@@H]3O[C@H](CO)[C@@H](O)[C@H]3O)[C@@H](O)[C@H](N)C[C@@H]2N)O1 [3', 4'-dideoxyribostamycin]
- inactivation by some strains producing the phosphotransferase [23]: can be inactivated by some strains producing the phosphotransferase
